This note sets out measurements from US9708325B2, “Sulfonimidoylpurinone compounds and derivatives for the treatment and prophylaxis of virus infection” (Hoffmann-La Roche Inc., priority 2015, dated 2017).

≈ marks a conversion by molar mass, not a printed value. Read-outs that look alike come from different tables or passages of the source. Some results are limits rather than exact numbers.

The target of one data set is human TLR7 (Homo sapiens (Human), UniProt Q9NYK1). In words: HEK-Blue-hTLR7 cells assay (SEAP reporter). To be noted: 20 hrs, read-out: HEK-Blue-hTLR7 (EC50 (μM)). The format is cell-based. On the procedure:
A stable HEK-Blue-hTLR7 cell line was purchased from InvivoGen (Cat.#: hkb-htlr7, San Diego, Calif., USA). These cells were designed for studying the stimulation of human TLR7 by monitoring the activation of NF-κB. […] Therefore the reporter expression was regulated by the NF-κB promoter upon stimulation of human TLR7 for 20 hrs. The cell culture supernatant SEAP reporter activity was determined using QUANTI-Blue™ kit (Cat.#: rep-qb1, Invivogen, San Diego, Ca, USA) at a wavelength of 640 nm, a detection medium that turns purple or blue in the presence of alkaline phosphatase.
(§1) HEK-Blue-hTLR7 cells were incubated at a density of 250,000˜450,000 cells/mL in a volume of 180 μL in a 96-well plate in Dulbecco's Modified Eagle's medium (DMEM) containing 4.5 g/L glucose, 50 U/mL penicillin, […], […], 2 mM L-glutamine, 10% (V/V) heat-inactivated fetal bovine serum for 24 hrs. Then the HEK-Blue-hTLR-7 cells were incubated with addition of 20 μL test compound in a serial dilution in the presence of final DMSO at 1% and perform incubation under 37° C. in a CO2 incubator for 20 hrs. Then 20 μL of the supernatant from each well was incubated with 180 μL Quanti-blue substrate solution at 37° C. for 2 hrs and the absorbance was read at 620˜655 nm using a spectrophotometer. The signalling pathway that TLR7 activation leads to downstream NF-κB activation has been widely accepted, and therefore similar reporter assay was also widely used for evaluating TLR7 agonist (Tsuneyasu Kaisho and Takashi Tanaka, Trends in Immunology, Volume 29, Issue 7, July 2008, […]; Hiroaki Hemmi et al, Nature Immunology 3, 196-200 (2002)).

The target in a further data set is human TLR8 (Homo sapiens (Human), UniProt Q9NR97). In words: HEK-Blue-hTLR8 cells assay and selectivity index. It is filed as cell-based. To be noted: for Selective index: EC50(TLR8) value/EC50(TLR7) value. On the procedure:
A stable HEK-Blue-hTLR8 cell line was purchased from InvivoGen (Cat.#: HEK-Blue-htlr8, San Diego, Calif., USA). These cells were designed for studying the stimulation of human TLR8 by monitoring the activation of NF-κB. […] Therefore the reporter expression was regulated by the NF-κB promoter upon stimulation of human TLR8 for 20 hrs. The cell culture supernatant SEAP reporter activity was determined using QUANTI-Blue™ kit (Cat.#: rep-qb1, Invivogen, San Diego, Ca, USA) at a wavelength of 640 nm, a detection medium that turns purple or blue in the presence of alkaline phosphatase.
as §1, with “HEK-Blue-hTLR8 cells” for “HEK-Blue-hTLR7 cells”, “the HEK-Blue-hTLR8” for “the HEK-Blue-hTLR-7”, “2 hours” for “2 hrs”, “that TLR8” for “that TLR7”, “evaluating TLR8” for “evaluating TLR7”
The ratio of TLR8 agonism activity compared to TLR7 agonism activity was defined as the selectivity index (EC50 (TLR8) value/EC50(TLR7) value) and calculated accordingly.

A short description of the next data set: LYSA solubility. The following applies: for LYSA: 0.05 M phosphate buffer (pH 6.5); for solubility thermodynamic: 0.05 M phosphate buffer, pH 6.5, aqueous buffer, thermodynamic from solid. It is filed as physicochemical. Here is the method: LYSA solubility assay is used to determine the aqueous solubility of a compound. Samples were prepared in duplicate from 10 mM DMSO stock solution. […] After one night, the solutions were filtered using a microtiter filter plate. Then the filtrate and its 1/10 dilution were analyzed by HPLC-UV.

Data set [1] can be described thus: Single dose PK after 1 mg/kg intravenous dosing to rat. It is filed as in vivo, Male Wister-Han Rats. To be noted: IV 1 mpk; for concentration at 4 h: read-out: Mean plasma concentration. Here is the method:
The single dose PK in Male Wister-Han Rats was performed to assess pharmacokinetic properties of tested compounds. Two groups of animals were dosed via bolus intravenous (IV) of the respective compound. Blood samples (approximately 20 μL) were collected via Jugular vein or an alternate site at 5 min, 15 min, 30 min, 1 hr, 2 hr, 4 hr, 7 hr and 24 hr post-dose for IV group. Blood samples were placed into tubes containing EDTA-K2 anticoagulant and centrifuged at 5000 rpm for 6 min at 4° C. to separate plasma from the samples. Following centrifugation, the resulting plasma was transferred to clean tubes for bioanalysis on LC/MS/MS. The pharmacokinetic parameters were calculated using non-compartmental module of WinNonlin® Professional 6.2. […] Therefore, compounds of present invention potentially could lead to less dose frequency and lower dose in clinical application.

Data set [2] has as its system Salmonella typhimurium tester strains (TA1535, TA97, TA98, TA100, and TA102). Put plainly: Ames microsuspension assay. The following applies: five strains, absence and presence of S9. The format is cell-based. On the procedure:
The Ames microsuspension assay examines if a compound causes DNA mutations. The method was based on a modified pre-incubation version described by Kado et al (see references: B. N. Ames, J. McCann, E. Yamasaki, Mutation Res. 1975, 31, 347-364 N.Y. Kado, D. Langley, and E. Eisenstadt, Mutation Res. 1983, 121, 25-32). Five Salmonella typhimurium tester strains (TA1535, TA97, TA98, TA100, and TA102) were treated with the test compound in absence and in presence of an exogenous metabolic activation system (S9). The bacteria were pre-incubated for 1 h, the pre-incubation volume is 210 μL (100 μL of overnight culture, 100 μL of S9 mix (10% S9) or 100 μL phosphate buffer, and 10 μL test compound solution). The overnight cultures were resuspended for the test in cold phosphate buffer. The S9 mix contains potassium chloride, magnesium chloride, sodium phosphate buffered saline, NADP^+ and glucose-6-phosphate. The test tubes are incubated and shaken for 60 minutes at 37° C. 2.2 mL soft agar supplemented with L-histidine and biotin was added afterwards and the content of the tubes were mixed and poured on Vogel-Bonner minimal agar plates.
Three replicate plates for the test compound and negative control or two replicate plates for the positive controls were incubated at 37° C., upside down, for 2 days. Colonies were counted electronically using an automatic image analysis system after having inspected the background lawn for signs of toxicity.
S9 is an in vitro metabolic system which is obtained from liver homogenates by centrifuging them at 9000 g for 20 minutes. It contains CYP450 isoforms, phase-II metabolic enzymes, etc. In the Ames microsuspension assay test, S9 is used to assess mutagenicity of compounds, some of which require metabolic activation to become mutagenic.
Criteria of the Ames microsuspension assay: a positive result is defined as a reproducible, dose-related increase in the number of revertant colonies in at least one of the strains. For TA1535 and TA98, the positive threshold is a 2-fold increase over control. For TA97, TA100 and TA102, the threshold is a 1.5-fold increase.

For another data set, the target named is hERG channel (Homo sapiens (Human), UniProt Q12809). Put plainly: hERG channel inhibition assay (patch-clamp, CHOhERG cells). The format is cell-based. Here is the method:
The hERG K^+ channels were cloned in humans and stably expressed in a CHO (Chinese hamster ovary) cell line. CHOhERG cells were used for patch-clamp (voltage-clamp, whole-cell) experiments. Cells were stimulated by a voltage pattern to activate hERG channels and conduct IKhERG currents (rapid delayed outward rectifier potassium current of the hERG channel). […] Thereafter, the test compound was added to the preparation at increasing concentrations. For each concentration, an attempt was made to reach a steady-state effect, usually, this was achieved within 3-10 min at which time the next highest concentration was applied. The amplitude and kinetics of IKhERG are recorded in each concentration of the drug which were compared to the control values (taken as 100%). (references: Redfern W S, Carlsson L, Davis A S, Lynch W G, MacKenzie I, Palethorpe S, Siegl P K, Strang I, Sullivan A T, Wallis R, Camm A J, Hammond T G. 2003; Relationships between preclinical cardiac electrophysiology, clinical QT interval prolongation and torsade de pointes for a broad range of drugs: evidence for a provisional safety margin in drug development. Cardiovasc. Res. 58:32-45, Sanguinetti M C, Tristani-Firouzi M. 2006; hERG potassium channels and cardiac arrhythmia. Nature 440:463-469, Webster R, Leishman D, Walker D. 2002; Towards a drug concentration effect relationship for QT prolongation and torsades de pointes. Curr. Opin. Drug Discov. Devel. 5:116-26).

Data set [3] can be described thus: Metabolic stability in human liver microsomes. The following applies: 1 μM test compound, 0.5 mg/mL microsomal protein; 6.15 mL/min/kg is the limitation of assay sensitivity. On the procedure: The human microsomal stability assay is used for early assessment of metabolic stability of a test compound in human liver microsomes.
Human liver microsomes (Cat. NO.: 452117, Corning, USA; Cat. NO.: H2610, Xenotech, USA) were preincubated with test compound for 10 minutes at 37° C. in 100 mM potassium phosphate buffer, pH 7.4. The reactions were initiated by adding NADPH regenerating system. The final incubation mixtures contained 1 μM test compound, 0.5 mg/mL liver microsomal protein, 1 mM MgCL2, 1 mM NADP, 1 unit/mL isocitric dehydrogenase and 6 mM isocitric acid in 100 mM potassium phosphate buffer, pH 7.4. After incubation times of 0, 3, 6, 9, 15 and 30 minutes at 37° C., 300 μL of cold ACN (including internal standard) was added to 100 μL incubation mixture to terminate the reaction. Following precipitation and centrifugation, the amount of compound remaining in the samples were determined by LC-MS/MS. Controls of no NADPH regenerating system at zero and 30 minutes were also prepared and analyzed.

Sequence of human TLR8 (Q9NR97 27-1041): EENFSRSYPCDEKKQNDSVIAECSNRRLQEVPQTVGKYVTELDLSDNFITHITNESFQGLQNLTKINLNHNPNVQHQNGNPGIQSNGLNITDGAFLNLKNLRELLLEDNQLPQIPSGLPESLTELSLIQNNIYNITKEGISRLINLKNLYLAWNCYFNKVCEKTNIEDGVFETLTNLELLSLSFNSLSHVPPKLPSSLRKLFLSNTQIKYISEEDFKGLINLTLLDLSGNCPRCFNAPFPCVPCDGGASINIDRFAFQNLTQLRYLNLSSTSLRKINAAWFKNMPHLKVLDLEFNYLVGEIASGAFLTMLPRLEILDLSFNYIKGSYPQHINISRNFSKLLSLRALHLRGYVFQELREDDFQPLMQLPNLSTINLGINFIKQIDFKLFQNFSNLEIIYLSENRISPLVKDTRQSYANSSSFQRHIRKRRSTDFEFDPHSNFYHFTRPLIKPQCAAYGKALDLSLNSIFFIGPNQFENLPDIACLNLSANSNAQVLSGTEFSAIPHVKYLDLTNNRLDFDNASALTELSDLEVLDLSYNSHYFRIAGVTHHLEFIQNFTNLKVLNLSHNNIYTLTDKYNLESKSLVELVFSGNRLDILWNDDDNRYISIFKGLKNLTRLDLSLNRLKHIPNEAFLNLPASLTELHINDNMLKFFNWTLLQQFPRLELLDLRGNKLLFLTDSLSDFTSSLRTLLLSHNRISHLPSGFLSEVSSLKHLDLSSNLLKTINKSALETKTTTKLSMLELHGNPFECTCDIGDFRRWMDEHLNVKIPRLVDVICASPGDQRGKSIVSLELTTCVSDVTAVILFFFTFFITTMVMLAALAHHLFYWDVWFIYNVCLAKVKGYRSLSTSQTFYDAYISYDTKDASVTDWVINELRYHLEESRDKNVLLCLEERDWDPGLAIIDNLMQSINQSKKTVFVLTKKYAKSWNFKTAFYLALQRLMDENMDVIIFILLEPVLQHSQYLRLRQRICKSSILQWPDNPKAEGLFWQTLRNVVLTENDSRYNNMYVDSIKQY
Sequence of human TLR7 (Q9NYK1 27-1049): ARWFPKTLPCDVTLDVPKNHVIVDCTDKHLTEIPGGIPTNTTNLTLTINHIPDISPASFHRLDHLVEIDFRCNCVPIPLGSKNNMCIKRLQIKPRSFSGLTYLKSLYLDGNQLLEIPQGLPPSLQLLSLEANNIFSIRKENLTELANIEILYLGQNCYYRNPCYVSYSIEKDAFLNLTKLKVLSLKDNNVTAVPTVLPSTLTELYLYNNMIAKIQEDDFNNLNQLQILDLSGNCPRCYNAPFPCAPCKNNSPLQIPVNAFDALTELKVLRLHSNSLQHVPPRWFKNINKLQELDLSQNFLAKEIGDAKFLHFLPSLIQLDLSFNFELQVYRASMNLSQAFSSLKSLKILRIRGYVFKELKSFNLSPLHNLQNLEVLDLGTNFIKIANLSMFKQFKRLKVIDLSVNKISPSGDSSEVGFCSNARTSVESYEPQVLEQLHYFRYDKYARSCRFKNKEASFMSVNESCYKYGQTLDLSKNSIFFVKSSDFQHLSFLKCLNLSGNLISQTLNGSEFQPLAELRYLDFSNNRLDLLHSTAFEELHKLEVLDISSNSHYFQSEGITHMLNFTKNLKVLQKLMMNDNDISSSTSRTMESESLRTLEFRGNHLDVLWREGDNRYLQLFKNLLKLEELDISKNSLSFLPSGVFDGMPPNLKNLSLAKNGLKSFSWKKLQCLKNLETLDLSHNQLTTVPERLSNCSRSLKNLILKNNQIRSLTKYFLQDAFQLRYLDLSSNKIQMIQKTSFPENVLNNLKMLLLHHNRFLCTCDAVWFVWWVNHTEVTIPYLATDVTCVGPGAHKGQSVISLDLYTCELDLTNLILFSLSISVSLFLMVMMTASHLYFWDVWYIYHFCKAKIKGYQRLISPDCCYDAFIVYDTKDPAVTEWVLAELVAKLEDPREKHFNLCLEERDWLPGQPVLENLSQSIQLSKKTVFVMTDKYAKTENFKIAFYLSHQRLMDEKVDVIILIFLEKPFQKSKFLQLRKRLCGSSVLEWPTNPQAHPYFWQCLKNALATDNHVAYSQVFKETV
Sequence of hERG channel (Q12809 whole entry): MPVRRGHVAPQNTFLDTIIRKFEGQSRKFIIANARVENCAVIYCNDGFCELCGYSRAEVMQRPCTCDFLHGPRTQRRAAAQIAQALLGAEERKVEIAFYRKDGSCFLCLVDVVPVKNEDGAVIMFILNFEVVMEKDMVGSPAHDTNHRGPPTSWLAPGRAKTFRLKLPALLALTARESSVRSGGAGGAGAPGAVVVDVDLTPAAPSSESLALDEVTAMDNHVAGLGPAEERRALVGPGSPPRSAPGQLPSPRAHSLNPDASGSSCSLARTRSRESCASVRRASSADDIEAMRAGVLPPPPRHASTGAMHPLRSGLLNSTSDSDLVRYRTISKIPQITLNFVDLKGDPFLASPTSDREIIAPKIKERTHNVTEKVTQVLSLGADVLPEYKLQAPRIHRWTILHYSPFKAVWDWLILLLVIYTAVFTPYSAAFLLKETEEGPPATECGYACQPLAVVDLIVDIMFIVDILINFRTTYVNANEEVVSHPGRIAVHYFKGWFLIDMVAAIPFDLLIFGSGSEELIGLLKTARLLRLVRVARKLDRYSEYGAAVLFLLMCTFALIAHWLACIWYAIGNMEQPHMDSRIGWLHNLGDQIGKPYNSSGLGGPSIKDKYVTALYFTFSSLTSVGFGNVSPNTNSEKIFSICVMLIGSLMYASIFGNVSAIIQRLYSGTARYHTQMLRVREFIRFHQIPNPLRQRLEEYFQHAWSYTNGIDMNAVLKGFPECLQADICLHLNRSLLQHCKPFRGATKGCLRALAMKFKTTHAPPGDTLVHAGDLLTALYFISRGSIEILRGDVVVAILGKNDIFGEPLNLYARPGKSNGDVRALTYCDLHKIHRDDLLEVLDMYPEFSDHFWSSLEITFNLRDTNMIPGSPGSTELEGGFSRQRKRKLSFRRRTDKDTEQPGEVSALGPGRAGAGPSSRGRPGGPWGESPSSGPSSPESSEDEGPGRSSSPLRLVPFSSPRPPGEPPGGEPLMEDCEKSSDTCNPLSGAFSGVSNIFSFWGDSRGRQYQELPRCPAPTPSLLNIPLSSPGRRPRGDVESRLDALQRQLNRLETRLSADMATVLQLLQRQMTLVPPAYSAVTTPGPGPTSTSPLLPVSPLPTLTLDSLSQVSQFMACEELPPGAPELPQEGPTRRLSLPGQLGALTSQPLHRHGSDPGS

On to `CS(=O)(=O)c1nc(N)c2[nH]c(=O)n(Cc3ccccc3)c2n1` [Example S-1, reference compound], for which the EC50 on human TLR7 was 0.37 µM; on human TLR8 (HEK-Blue-hTLR8 cells, SEAP reporter, 20 hrs, read-out: HEK Blue hTLR-8 EC50) it was > 1000 µM. In addition, the Selective index on human TLR8 is recorded as >2703. Also, in “LYSA solubility”, the “LYSA” value is 0.5 µg/mL. For the same compound, the “AUC0-inf” value in data set [1] came out at 0.201 µM·h. Besides, in data set [1], the “CL” value stood at 261 mL/min/kg. Further, in data set [1], the “CO” value is recorded as 534 nM. Besides, the concentration at 4 h in data set [1] (0.083 h) was 534 nM; in data set [1] (0.25 h), 236 nM; in data set [1] (0.5 h), 125 nM; in data set [1] (1 h) it was 38 nM; in data set [1] (2 h) it was 9 nM.
Regarding `CCCS(=N)(=O)c1nc(N)c2[nH]c(=O)n(Cc3ccc(C)cc3)c2n1` (single isomer, unassigned) [Example 29-B, 6-Amino-2-(propylsulfonimidoyl)-9-(p-tolylmethyl)-7H-purin-8-one], the “LYSA” value in “LYSA solubility” was determined as 11 µg/mL. Also, the Ames result in data set [2] was “negative”. Further, the “Safety ratio (hERG IC20/EC50)” value at hERG channel (hERG IC20/EC50) is on record as >546. The IC20 on hERG channel (read-out: hERG IC20) is > 10 µM.
`CS(=N)(=O)c1nc(N)c2[nH]c(=O)n(Cc3ccccc3)c2n1` (single isomer, unassigned) [Example 1-B, 6-Amino-9-benzyl-2-(methylsulfonimidoyl)-7H-purin-8-one] registered a solubility (thermodynamic) in the data set “LYSA solubility” of 98 µg/mL (≈ 308 µM). Moreover, the “Human Liver Microsome Clearance” value in data set [3] is on record as <6.15 mL/min/kg. For the same compound, the Ames result in data set [2] is on record as “negative”.
Regarding `CS(=N)(=O)c1nc(N)c2[nH]c(=O)n(Cc3ccc(Cl)cc3)c2n1` (centres unmarked) [Example 13, 6-Amino-9-[(4-chlorophenyl)methyl]-2-(methylsulfonimidoyl)-7H-purin-8-one], the EC50 is 0.043 µM at human TLR7 and 300 µM on human TLR8. In addition, at human TLR8, the Selective index amounted to 6977. Further, in “LYSA solubility”, the thermodynamic solubility came out at 10 µg/mL (≈ 28.3 µM).
